Assay results from PMC6315057, “Industrial scale high-throughput screening delivers multiple fast acting macrofilaricides” (Nature Communications, 2019).
In brackets after ≈: the same amount, converted by molar mass.

Columns and labels:
LogD7.4 = assay type: physicochemical; details: pH 7.4
From the text: (§1) The DMPK data used for triaging compounds, including LogD7.4, aqueous solubility, plasma protein binding, microsome and hepatocyte clearance measurements, were generated using the standard AstraZeneca UK high-throughput platform[37],[38].

[1] = Human plasma protein binding; assay type: in vitro ADME; details: plasma
From the text: as §1

[2] = tested on: Wolbachia in C6/36 (wAlbB) cells; assay: Confirmatory re-assessment in the insect cell screen (cell assay EC50); assay type: cell-based, Wolbachia pipientis wAlbB (in Aedes albopictus C6/36 cells); details: Wolbachia, C6/36; insect cell screen, re-sourced or re-synthesised samples
From the text: To further validate the hit molecules from these 9 clusters, samples were sourced either from the AstraZeneca compound inventory or through re-synthesis. All 18 samples were characterised by nuclear magnetic resonance (NMR) and mass spectroscopy to confirm their chemical structures and by HPLC/LCMS to establish their purity (Supplementary Table 5 and Supplementary Data 1). These samples were also subject to confirmatory re-assessment in both the insect cell screen and Mf assays for anti-Wolbachia potency alongside confirmation of DMPK properties (LogD7.4, aqueous solubility in pH 7.4 PBS, human microsomal turnover, rat hepatocyte turnover and human plasma protein binding) (Fig. 4, Supplementary Figure 1 and Supplementary Table 4).
(§2) On day 0, a single cryovial was recovered and the cells washed before being transferred to a T225 cm^2 flask. After a 7-day recovery Wolbachia infection level (quality control (QC)) was checked by SYTO®11 DNA staining of both the host cell nuclei and intracellular Wolbachia. The end-point read out from the Operetta® high content imaging system (Perkin Elmer) was the percentage of cells infected with Wolbachia. This was obtained from cytoplasm texture analysis by the associated Harmony® software. Cells with a >50% of the population infected with Wolbachia were classed as having a good Wolbachia level and therefore used for screening through addition of 2000 cells per well into assay ready 384-well plates containing the test compounds. […] Each plate included on-board controls; vehicle/DMSO (total/maximum Wolbachia signal) or doxycycline 5 µM (null/minimum Wolbachia signal), resulting in single shot screening of 352 compounds per plate for the primary screen. […] QC plates were also created including full columns of the following controls; DMSO (total/max), 5 μM doxycycline (null/min), as well as 50 nM doxycycline (reference/medium Wolbachia signal). Daily batches contained ~150 compound plates in addition to the QC plates. Each compound plate was foil sealed before incubation for 7 days at 26 °C, 95% humidity and atmospheric air.

[3] = tested on: Wolbachia within Brugia malayi Mf; assay: B. malayi microfilarial (Mf) in vitro anti-Wolbachia assay (wsp:gst qPCR); assay type: cell-based; details: Brugia malayi, 144 h; B. malayi Mf, 6 days; read-out: Mf EC50
Protocol: The Mf were obtained by peritoneal lavage, using a catheter, of gerbils (Meriones unguiculatus) harbouring a patent infection of B. malayi. Mf were purified using a PD-10 desalting column (Fisher), centrifuged (311 RCF for 5 min at room temperature) before the addition of 8000 Mf/well of a 96-well plate (100 µl per well) in complete media consisting of RPMI supplemented with 10% FBS, 1% penicillin streptomycin and 1% amphotericin B. […] Each plate contained doxycycline (5 µM) and DMSO controls. After incubation at 37 °C for 6 days in 5% CO2, visual assessment of Mf motility was performed and scored from 0 to 4 per well (where 0 = no movement and 4 = highly motile). DNA extraction per sample was performed using the QIAmp DNA Mini Kit before quantitative PCR was performed to obtain the ratio of Wolbachia Surface Protein gene copy number (wsp) to Glutathione S-Transferase gene copy number (gst)[36]. The DNA was amplified using the primers as indicated in Supplementary Table 6.
(§3) The wsp:gst ratio data allowed for normalisation of the Wolbachia level to the Mf biomass for each well. The change in wsp:gst for each compound compared to the DMSO control was calculated before normalisation to the onboard doxycycline control to allow for inter-assay comparison.

[4] = Human microsome clearance; assay type: in vitro ADME; details: for microsomal CLint: human, human microsomes
From the text: as §1

[5] = tested on: Wolbachia in C6/36 (wAlbB) cells; assay: Secondary concentration response HTS (IC50) anti-Wolbachia screen in C6/36 (wAlbB) insect cells; assay type: cell-based, Wolbachia pipientis wAlbB (in Aedes albopictus C6/36 cells); details: Wolbachia, 168 h, 7-day incubation, 10-point concentration range
Protocol: Initially C6/36 (wAlbB) cells (insect cells stably infected with the Wolbachia target) from a single cryopreserved batch were recovered over 7 days prior to plating into 384-well assay ready plates (containing the test compounds), using a semi-automated process allowing for daily batches of ~150 plates, set up 4 days per week for 8 weeks. After a 7-day incubation period with the test compounds the plates were moved into the second fully automated stage (using the Agilent Technologies BioCel system) involving formaldehyde fixation, DNA staining of the insect cell nuclei (Hoechst) for toxicity analysis and antibody staining specific to the intracellular Wolbachia (wBmPAL primary antibody and far-red secondary antibody). In the final stage the fixed and stained plates from stage 2 were processed through automated data acquisition (High Res Biosolutions system, incorporating EnVision™ and acumen® plate readers). This industry standardised assay was then used to screen AstraZeneca’s full library of 1.3 million compounds within 10 weeks. In total this HTS included 30 × 3 week assays covering 3835 × 384-well plates. This primary HTS generated 20,255 hits defined as >80% reduction in Wolbachia with <60% toxicity to the host insect cell (eliminating false positives). This represents an overall hit rate of 1.56%. These compounds are depicted in chemical space in Fig. 2 (black points)[21].
The mosquito (Aedes albopictus) derived cell line C6/36 (ATCC® CRL 1660), stably infected with Wolbachia pipientis wAlbB (C6/36(wAlbB)), was maintained in Leibovitz L15 medium containing 2 mM L-glutamine, 1% nonessential amino acids, 2% tryptose phosphate broth and 20% heat-inactivated foetal bovine serum (FBS) at 26 °C[18]. This screen exclusively used cells from the large-scale cryopreserved batch produced as part of this campaign by culturing the cells at scale before cryopreservation (90% FBS and 10% DMSO). This produced a cell bank of 190 × 1 ml cryovials containing 3 × 10^7 cells per vial.
as §2
After 7 days of drug incubation, the plates were loaded into the fully automated BioCel system which performed the following additions; fixation and DNA staining (1.8% formaldehyde + 0.6 µg/ml Hoechst 33342, 20 min), permeabilisation (80 μl of PBS + 0.25% Triton-X 100, 30 min), blocking (PBS + 6% BSA, 40 min), overnight incubation in the Wolbachia-specific anti-wBmPAL primary antibody[34] […]

THP-1 cells = assay: Mammalian cell viability counter-screen (CellTiter-Blue); assay type: cell-based, human; details: Homo sapiens, 48 h, read-out: HTS IC50 mammalian toxicity
Protocol: The human monocytic THP-1 cell line (ATCC® TIB-202) used for mammalian cytotoxicity evaluation was routinely cultured in roller bottles. Growth media consisted of RPMI 1640 supplemented with 10% FBS and 2 mM L-glutamine. Cells were maintained at 37 °C with 95% humidity in 5% CO2 in a shaking incubator.
All compounds selected for secondary IC50 screen were tested in parallel for mammalian cell viability using the CellTiter-Blue® Cell Viability Assay. THP1 cells were removed from culture and plated at 1 × 10^4 cells/well (40 µl) into 384-well assay ready plates and incubated at 37 °C, 5% CO2 for 48 h at 95% humidity. After the addition of CellTiter-Blue Viability reagent (8 µl of a 1:6 dilution) the assay plates were incubated for a further 2 h before fluorescence detected using a PerkinElmer EnVision™ plate reader.

[6] = Aqueous solubility in pH 7.4 PBS; assay type: physicochemical; details: for solubility: PBS pH 7.4, aqueous buffer, pH 7.4 PBS, read-out: Aqueous solubility in pH7.4 PBS
From the text: as §1

Rat hepatocyte clearance = assay type: in vitro ADME
From the text: as §1

[7] = tested on: Wolbachia within Brugia malayi Mf; assay: Anti-Wolbachia time-kill analysis (timed wash-out) in B. malayi Mf; assay type: cell-based; details: 10x EC50; maximal reduction 70–90% normalised to vehicle control
From the text: To compare the dynamics of the in vitro phenotype of our hits with existing anti-Wolbachia therapies, we employed a timed wash-out strategy (Fig. 5) at 10x EC50 to establish the anti-Wolbachia time-kill kinetics of the selected chemotypes (1A–5A), using five replicates per compound. […].
Fig. 5 Anti-Wolbachia time-kill analysis. Representatives from the top five clusters (1A–5A), as well as established anti-Wolbachia antibacterials (doxycycline (white), minocycline (grey), rifampicin (black)) were assessed after exposure for 1 day and 2 days before washing and further incubation until the standard 6-day read out. wsp:gst ratio was normalised to the DMSO vehicle control resulting in a read out of mean percentage reduction from control. Doxycycline day 6 treatment represents the result for exposure to doxycycline at 5 µM for a full 6 days (no wash). The box extends from the 25th to the 75th percentile with the median presented by the central line. The whiskers are set at the minimum and maximum therefore indicating the range from five replicates. The cluster number is indicated by colour: cluster 1 (dark blue), 2 (magenta), 3 (teal), 4 (dark gold), and 5 (light blue)
The Mf were obtained by peritoneal lavage, using a catheter, of gerbils (Meriones unguiculatus) harbouring a patent infection of B. malayi. Mf were purified using a PD-10 desalting column (Fisher), centrifuged (311 RCF for 5 min at room temperature) before the addition of 8000 Mf/well of a 96-well plate (100 µl per well) in complete media consisting of RPMI supplemented with 10% FBS, 1% penicillin streptomycin and 1% amphotericin B. Compounds were diluted in complete media and 100 µl was added per well, providing a final concentration of 5 µM, with five replicates per compound. Each plate contained doxycycline (5 µM) and DMSO controls. After incubation at 37 °C for 6 days in 5% CO2, visual assessment of Mf motility was performed and scored from 0 to 4 per well (where 0 = no movement and 4 = highly motile). DNA extraction per sample was performed using the QIAmp DNA Mini Kit before quantitative PCR was performed to obtain the ratio of Wolbachia Surface Protein gene copy number (wsp) to Glutathione S-Transferase gene copy number (gst)[36]. The DNA was amplified using the primers as indicated in Supplementary Table 6.
as §3

Row | SMILES | logD (LogD7.4) | fraction unbound [1] | EC50 [2] | EC50 [3] | microsomal CLint [4] | Metabolic stability (in words) ([4]; in vitro, system not given) | IC50 [5] | IC50 (THP-1 cells) | Solubility (in words) [6] | solubility [6] | Rat hepatocytes CLint (Rat hepatocyte clearance) | Exposure time to achieve a maximal Wolbachia reduction [7]
1 | COc1ccc(C(=O)Nc2ccc(CNC(=O)c3ccnn3C)cc2C)cn1 [7A, 6-methoxy-N-(2-methyl-4-((1-methyl-1H-pyrazole-5-carboxamido)methyl)phenyl)nicotinamide] | 2 | 0.003 | 1140 nM | ~1160 nM | < 3 µL/min/mg | high | 1270 nM | 23200 nM | good | 100 µM (≈ 37.9 µg/mL) | < 1 µl/min/1x106 cells | 
2 | CN(Cc1cccc(Cl)c1)S(=O)(=O)c1ccc2c(c1)C(=O)NCC2 [8A, N-(3-chlorobenzyl)-N-methyl-1-oxo-1,2,3,4-tetrahydroisoquinoline-7-sulfonamide] | 2.7 | 0.05 | 515 nM | 2700 nM | > 300 µL/min/mg |  | 486 nM | > 30600 nM |  | 16 µM (≈ 5.84 µg/mL) | > 300 µl/min/1x106 cells | 
3 | CN(Cc1cccc(Br)c1)S(=O)(=O)c1ccc2c(c1)C(=O)NCC2 [8B, N-(3-bromobenzyl)-N-methyl-1-oxo-1,2,3,4-tetrahydroisoquinoline-7-sulfonamide] | 3.1 | 0.034 | 873 nM | > 5000 nM | > 300 µL/min/mg |  | 535 nM | > 30600 nM |  | 6 µM (≈ 2.46 µg/mL) | > 300 µl/min/1x106 cells | 
4 | O=C(Cc1cc(F)cc(F)c1)NCC(=O)NC1C(=O)Nc2ccccc2SC1c1ccccc1 (stereo not shown) [9A, 2-(3,5-difluorophenyl)-N-(2-oxo-2-((4-oxo-2-phenyl-2,3,4,5-tetrahydrobenzo[b][1,4]thiazepin-3-yl)amino)ethyl)acetamide] | 3 | 0.12 | 180 nM | > 5000 nM | 228 µL/min/mg |  | 181 nM | > 30600 nM |  | 105 µM (≈ 50.6 µg/mL) | 28.0 µl/min/1x106 cells | 
5 | O=C(NCCCn1ccnc1)NC1C(=O)Nc2ccccc2SC1c1cc(F)ccc1F (stereo not shown) [9B, 1-(3-(1H-imidazol-1-yl)propyl)-3-(2-(2,5-difluorophenyl)-4-oxo-2,3,4,5-tetrahydrobenzo[b][1,4]thiazepin-3-yl)urea] | 3.8 | 0.016 | 483 nM | 2700 nM | > 300 µL/min/mg |  | 475 nM | > 30600 nM |  | 43 µM (≈ 19.7 µg/mL) | 171.6 µl/min/1x106 cells | 
6 | CN(C)c1ccc(O)c2c1C[C@H]1C[C@H]3[C@H](N(C)C)C(O)=C(C(N)=O)C(=O)[C@@]3(O)C(O)=C1C2=O [minocycline, reference compound] |  |  |  |  |  |  |  |  |  |  |  | > 2 days
7 | CO[C@H]1/C=C/O[C@@]2(C)Oc3c(C)c(O)c4c(O)c(c(/C=N/N5CCN(C)CC5)c(O)c4c3C2=O)NC(=O)/C(C)=C\C=C\[C@H](C)[C@H](O)[C@@H](C)[C@@H](O)[C@@H](C)[C@H](OC(C)=O)[C@@H]1C [rifampicin, reference compound] |  |  |  |  |  |  |  |  |  |  |  | > 2 days
